# Measured values taken from ChEMBL document CHEMBL1201861, “Genomics of Drug Sensitity in Cancer screening data, Wellcome Trust Sanger Institute”.
# Tests used:
# [1] = test system: D283 Med; experiment: cells; assay type: functional, cell-based, Homo sapiens; settings: Homo sapiens, D283 Med
# Description: SANGER: Inhibition of human D-283MED cell growth in a cell viability assay.
# [2] = test system: Daudi; experiment: cells; assay type: functional, cell-based; settings: Homo sapiens;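 note: growth inhibition of Daudi cells, read out by a viability assay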
# Description: SANGER: Inhibition of human Daudi cell growth in a cell viability assay.
# [3] = test system: EB-3; experiment: cells; assay type: functional, cell-based; settings: Homo sapiens;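 note: human EB-3 cells, growth inhibition read out via a cell viability assay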
# Description: SANGER: Inhibition of human EB-3 cell growth in a cell viability assay.
# [4] = test system: ECC4; experiment: cells; assay type: functional, cell-based; settings: Homo sapiens;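 note: growth inhibition of ECC4 cells, read out with a cell viability assay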
# Description: SANGER: Inhibition of human ECC4 cell growth in a cell viability assay.
# [5] = test system: GI-1; experiment: cells; assay type: functional, cell-based, Homo sapiens; settings: Homo sapiens, GI-1;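 note: growth inhibition of human GI-1 cells, measured with a cell viability readout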
# Description: SANGER: Inhibition of human GI-1 cell growth in a cell viability assay.
# [6] = test system: IMR-5; experiment: cells; assay type: functional, cell-based; settings: Homo sapiens;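 note: growth inhibition of human IMR-5 cells, read out with a cell viability assay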
# Description: SANGER: Inhibition of human IMR-5 cell growth in a cell viability assay.
# [7] = test system: K052; experiment: cells; assay type: functional, cell-based; settings: Homo sapiens;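 note: Read-out from a cell viability assay, IC50 reflecting suppression of K052 cell growth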
# Description: SANGER: Inhibition of human K052 cell growth in a cell viability assay.
# [8] = test system: KALS-1; experiment: cells; assay type: functional, cell-based, Homo sapiens; settings: Homo sapiens, KALS-1;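 note: growth inhibition of KALS-1 cells, determined with a cell viability assay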
# [9] = test system: KARPAS-422; experiment: cells; assay type: functional, cell-based; settings: Homo sapiens
# Description: SANGER: Inhibition of human KARPAS-422 cell growth in a cell viability assay.
# [10] = test system: Kasumi 1; experiment: cells; assay type: functional, cell-based; settings: Homo sapiens;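 note: growth inhibition of human Kasumi-1 cells, read out by a cell viability assay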
# Description: SANGER: Inhibition of human KASUMI-1 cell growth in a cell viability assay.
# [11] = test system: KMS-12-PE; experiment: cells; assay type: functional, cell-based; settings: Homo sapiens;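 note: growth inhibition of human KMS-12-PE cells, measured with a cell viability assay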
# Description: SANGER: Inhibition of human KMS-12-PE cell growth in a cell viability assay.
# [12] = test system: KURAMOCHI; experiment: cells; assay type: functional, cell-based; settings: Homo sapiens;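 note: growth inhibition of KURAMOCHI cells, read out with a cell viability assay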
# Description: SANGER: Inhibition of human KURAMOCHI cell growth in a cell viability assay.
# [13] = test system: L-540; experiment: cells; assay type: functional, cell-based; settings: Homo sapiens;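 note: growth inhibition of the human L-540 cell line, read out with a viability assay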
# Description: SANGER: Inhibition of human L-540 cell growth in a cell viability assay.
# [14] = test system: LB647-SCLC; experiment: cells; assay type: functional, cell-based; settings: Homo sapiens;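 note: cell growth inhibition, read out by a viability assay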
# Description: SANGER: Inhibition of human LB647-SCLC cell growth in a cell viability assay.
# [15] = test system: Lu-65; experiment: cells; assay type: functional, cell-based; settings: Homo sapiens;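 note: growth inhibition of Lu-65 cancer cells, read out by a cell viability assay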
# Description: SANGER: Inhibition of human LU-65 cell growth in a cell viability assay.
# [16] = test system: MRK-nu-1; experiment: cells; assay type: functional, cell-based; settings: Homo sapiens;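 note: cell viability assay measuring growth suppression of human MRK-nu-1 cells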
# Description: SANGER: Inhibition of human MRK-nu-1 cell growth in a cell viability assay.
# [17] = test system: NB12; experiment: cells; assay type: functional, cell-based, Homo sapiens; settings: Homo sapiens, NB12;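 note: growth inhibition of human NB12 cells, read out by a cell viability assay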
# Description: SANGER: Inhibition of human NB12 cell growth in a cell viability assay.
# [18] = test system: NB17; experiment: cells; assay type: functional, cell-based; settings: Homo sapiens;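 note: growth inhibition of NB17 cells, read out with a cell viability assay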
# Description: SANGER: Inhibition of human NB17 cell growth in a cell viability assay.
# [19] = test system: NCI-H1299; experiment: cells; assay type: functional, cell-based, Homo sapiens; settings: Homo sapiens, NCI-H1299;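 note: growth inhibition of human NCI-H1299 cells, read out by a cell viability assay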
# Description: SANGER: Inhibition of human NCI-H1299 cell growth in a cell viability assay.
# [20] = test system: NCI-H1436; experiment: cells; assay type: functional, cell-based; settings: Homo sapiens;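 note: growth suppression of human NCI-H1436 cells, determined with a cell viability readout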
# Description: SANGER: Inhibition of human NCI-H1436 cell growth in a cell viability assay.
# [21] = test system: NCI-H1694; experiment: cells; assay type: functional, cell-based; settings: Homo sapiens;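 note: cell viability assay measuring inhibition of growth in human NCI-H1694 cells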
# Description: SANGER: Inhibition of human NCI-H1694 cell growth in a cell viability assay.
# [22] = test system: NCI-H1963; experiment: cells; assay type: functional, cell-based; settings: Homo sapiens
# Description: SANGER: Inhibition of human NCI-H1963 cell growth in a cell viability assay.
# [23] = test system: NCI-H2081; experiment: cells; assay type: functional, cell-based; settings: Homo sapiens;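 note: growth inhibition of human NCI-H2081 cells, read out with a cell viability assay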
# Description: SANGER: Inhibition of human NCI-H2081 cell growth in a cell viability assay.
# [24] = test system: NCI-H2141; experiment: cells; assay type: functional, cell-based; settings: Homo sapiens;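 note: growth inhibition of human NCI-H2141 cells, read out with a cell viability assay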
# Description: SANGER: Inhibition of human NCI-H2141 cell growth in a cell viability assay.
# [25] = test system: NCI-H345; experiment: cells; assay type: functional, cell-based; settings: Homo sapiens;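 note: growth inhibition of NCI-H345 cells measured with a cell viability assay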
# Description: SANGER: Inhibition of human NCI-H345 cell growth in a cell viability assay.
# [26] = test system: NCI-H524; experiment: cells; assay type: functional, cell-based; settings: Homo sapiens;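 note: growth inhibition of human NCI-H524 cells, read out through a cell viability assay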
# Description: SANGER: Inhibition of human NCI-H524 cell growth in a cell viability assay.
# [27] = test system: NCI-H889; experiment: cells; assay type: functional, cell-based; settings: Homo sapiens;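 note: cell growth inhibition of the cell line, read out with a viability assay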
# Description: SANGER: Inhibition of human NCI-H889 cell growth in a cell viability assay.
# [28] = test system: REH; experiment: cells; assay type: functional, cell-based; settings: Homo sapiens;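 note: growth inhibition of REH cells determined with a cell viability read-out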
# Description: SANGER: Inhibition of human REH cell growth in a cell viability assay.
# [29] = test system: Raji; experiment: cells; assay type: functional, cell-based; settings: Homo sapiens;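 note: cell viability assay measuring inhibition of Raji cell growth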
# Description: SANGER: Inhibition of human Raji cell growth in a cell viability assay.
# [30] = test system: SCC-3; experiment: cells; assay type: functional, cell-based; settings: Homo sapiens;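 note: cell viability assay measuring inhibition of SCC-3 cell growth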
# Description: SANGER: Inhibition of human SCC-3 cell growth in a cell viability assay.
# [31] = test system: SNU-C1; experiment: cells; assay type: functional, cell-based; settings: Homo sapiens;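 note: growth inhibition of SNU-C1 human cells, read out by a cell viability assay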
# Description: SANGER: Inhibition of human SNU-C1 cell growth in a cell viability assay.
# [32] = test system: SR; experiment: cells; assay type: functional, cell-based; settings: Homo sapiens
# Description: SANGER: Inhibition of human SR cell growth in a cell viability assay.
# [33] = test system: ST486; experiment: SANGER: Inhibition of human ST486 cell growth in a cell viability assay.; assay type: functional, cell-based
# [34] = test system: SUP-T1; experiment: cells; assay type: functional, cell-based; settings: Homo sapiens;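 note: growth inhibition of human SUP-T1 cells, read out as cell viability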
# Description: SANGER: Inhibition of human SUP-T1 cell growth in a cell viability assay.
# [35] = test system: A4-Fuk; experiment: cells; assay type: functional, cell-based; settings: Homo sapiens;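 note: growth inhibition of A4-Fuk cells, read out by a cell viability assay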
# Description: SANGER: Inhibition of human A4-Fuk cell growth in a cell viability assay.
# [36] = test system: ARH-77; experiment: cells; assay type: functional, cell-based; settings: Homo sapiens;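 note: growth inhibition of ARH-77 cells, read out by a cell viability assay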
# Description: SANGER: Inhibition of human ARH-77 cell growth in a cell viability assay.
# [37] = test system: BC1 cell line; experiment: SANGER: Inhibition of human BC-1 cell growth in a cell viability assay.; assay type: functional, cell-based
# [38] = test system: CA46; experiment: cells; assay type: functional, cell-based; settings: Homo sapiens;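 note: growth inhibition of human CA46 cells, read out by a cell viability assay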
# Description: SANGER: Inhibition of human CA46 cell growth in a cell viability assay.
# [39] = test system: TE-15; experiment: cells; assay type: functional, cell-based; settings: Homo sapiens;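 note: cell viability readout of growth inhibition in TE-15 cells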
# Description: SANGER: Inhibition of human TE-15 cell growth in a cell viability assay.
# [40] = test system: MOLT-13; experiment: cells; assay type: functional, cell-based; settings: Homo sapiens;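 note: IC50 for suppression of MOLT-13 cell growth, read out with a cell viability assay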
# Description: SANGER: Inhibition of human MOLT-13 cell growth in a cell viability assay.
Compound,IC50 [1],IC50 [2],IC50 [3],IC50 [4],IC50 [5],IC50 [6],IC50 [8],IC50 [9],IC50 [10],IC50 [11],IC50 [13],IC50 [14],IC50 [15],IC50 [16],IC50 [17],IC50 [18],IC50 [20],IC50 [21],IC50 [22],IC50 [23],also measured
C=C1C(=O)O[C@@H]2C3O[C@]3(C)CC/C=C(\C)CC[C@@H]12 (some centres not stated),> 5 µM,> 5 µM,> 5 µM,> 5 µM,> 5 µM,> 5 µM,> 5 µM,> 5 µM,> 5 µM,> 5 µM,> 5 µM,> 5 µM,> 5 µM,2.01 µM,> 5 µM,1.72 µM,> 5 µM,> 5 µM,> 5 µM,> 5 µM,IC50 [7]: > 5 µM; IC50 [12]: > 5 µM; IC50 [19]: > 5 µM; IC50 [24]: > 5 µM; IC50 [25]: > 5 µM; IC50 [26]: > 5 µM; IC50 [27]: > 5 µM; IC50 [28]: > 5 µM; IC50 [29]: > 5 µM; IC50 [30]: 2.8 µM; IC50 [31]: > 5 µM; IC50 [32]: > 5 µM; IC50 [33]: > 5 µM; IC50 [34]: > 5 µM; IC50 [35]: > 5 µM; IC50 [36]: > 5 µM; IC50 [37]: > 5 µM; IC50 [38]: > 5 µM; IC50 [39]: > 5 µM
CC1=C2C[C@H]3[C@@H](CC=C4C[C@@H](O)CC[C@@]43C)[C@@H]2CC[C@]12O[C@@H]1C[C@H](C)CN[C@H]1[C@H]2C [CYCLOPAMINE],> 16 µM,> 16 µM,> 16 µM,> 16 µM,> 16 µM,> 16 µM,> 16 µM,> 16 µM,> 16 µM,> 16 µM,> 16 µM,> 16 µM,> 16 µM,> 16 µM,> 16 µM,> 16 µM,> 16 µM,> 16 µM,> 16 µM,> 16 µM,IC50 [7]: > 16 µM; IC50 [24]: > 16 µM; IC50 [25]: > 16 µM; IC50 [26]: > 16 µM; IC50 [27]: > 16 µM; IC50 [28]: > 16 µM; IC50 [29]: > 16 µM; IC50 [30]: > 16 µM; IC50 [31]: > 16 µM; IC50 [32]: > 16 µM; IC50 [33]: > 16 µM; IC50 [34]: > 16 µM; IC50 [35]: > 16 µM; IC50 [36]: > 16 µM; IC50 [37]: > 16 µM; IC50 [38]: > 16 µM; IC50 [39]: > 16 µM
CS(=O)(=O)CCNCc1ccc(-c2ccc3ncnc(Nc4ccc(OCc5cccc(F)c5)c(Cl)c4)c3c2)o1 [LAPATINIB],> 2 µM,> 2 µM,> 2 µM,> 2 µM,> 2 µM,> 2 µM,> 2 µM,> 2 µM,> 2 µM,> 2 µM,> 2 µM,> 2 µM,> 2 µM,> 2 µM,> 2 µM,> 2 µM,> 2 µM,> 2 µM,> 2 µM,> 2 µM,IC50 [12]: > 2 µM; IC50 [24]: > 2 µM; IC50 [25]: > 2 µM; IC50 [26]: > 2 µM; IC50 [27]: > 2 µM; IC50 [28]: > 2 µM; IC50 [29]: > 2 µM; IC50 [30]: > 2 µM; IC50 [31]: > 2 µM; IC50 [32]: > 2 µM; IC50 [33]: > 2 µM; IC50 [34]: > 2 µM; IC50 [35]: > 2 µM; IC50 [36]: > 2 µM; IC50 [37]: > 2 µM; IC50 [38]: > 2 µM; IC50 [39]: > 2 µM
CCc1nc(N)nc(N)c1-c1ccc(Cl)cc1 [PYRIMETHAMINE],> 20 µM,> 20 µM,> 20 µM,> 20 µM,> 20 µM,> 20 µM,12 µM,18.2 µM,> 20 µM,> 20 µM,10.5 µM,> 20 µM,11 µM,> 20 µM,> 20 µM,> 20 µM,> 20 µM,> 20 µM,> 20 µM,> 20 µM,IC50 [7]: > 20 µM; IC50 [12]: > 20 µM; IC50 [40]: > 20 µM; IC50 [19]: > 20 µM; IC50 [24]: > 20 µM; IC50 [25]: > 20 µM; IC50 [26]: > 20 µM; IC50 [27]: > 20 µM; IC50 [28]: > 20 µM; IC50 [29]: > 20 µM; IC50 [30]: 1.84 µM; IC50 [31]: > 20 µM; IC50 [32]: 16.5 µM; IC50 [33]: 9.31 µM; IC50 [34]: > 20 µM; IC50 [35]: 15.8 µM; IC50 [36]: 19.5 µM; IC50 [37]: 5.1 µM; IC50 [38]: > 20 µM; IC50 [39]: > 20 µM
O=C(/C=C/c1ccccc1)NC(NC(=S)Nc1cccc2cccnc12)C(Cl)(Cl)Cl (configuration not stated) [SALUBRINAL],> 16 µM,6.34 µM,9.63 µM,> 16 µM,> 16 µM,13.8 µM,> 16 µM,> 16 µM,> 16 µM,> 16 µM,16 µM,> 16 µM,> 16 µM,7.75 µM,> 16 µM,> 16 µM,> 16 µM,> 16 µM,> 16 µM,> 16 µM,IC50 [7]: > 16 µM; IC50 [12]: > 16 µM; IC50 [40]: > 16 µM; IC50 [24]: > 16 µM; IC50 [25]: > 16 µM; IC50 [26]: > 16 µM; IC50 [27]: > 16 µM; IC50 [28]: > 16 µM; IC50 [29]: > 16 µM; IC50 [30]: > 16 µM; IC50 [31]: > 16 µM; IC50 [32]: > 16 µM; IC50 [33]: 8.54 µM; IC50 [34]: > 16 µM; IC50 [35]: 14.1 µM; IC50 [36]: > 16 µM; IC50 [37]: 15.2 µM; IC50 [38]: > 16 µM; IC50 [39]: > 16 µM
CNC(=O)c1cc(Oc2ccc(NC(=O)Nc3ccc(Cl)c(C(F)(F)F)c3)cc2)ccn1 [SORAFENIB],> 4 µM,> 4 µM,> 4 µM,> 4 µM,> 4 µM,> 4 µM,> 4 µM,> 4 µM,> 4 µM,> 4 µM,2.76 µM,> 4 µM,> 4 µM,3.61 µM,> 4 µM,> 4 µM,1.22 µM,> 4 µM,> 4 µM,> 4 µM,IC50 [7]: 2.75 µM; IC50 [12]: > 4 µM; IC50 [40]: > 4 µM; IC50 [19]: > 4 µM; IC50 [24]: > 4 µM; IC50 [25]: > 4 µM; IC50 [26]: > 4 µM; IC50 [27]: > 4 µM; IC50 [28]: > 4 µM; IC50 [29]: > 4 µM; IC50 [30]: > 4 µM; IC50 [31]: > 4 µM; IC50 [32]: > 4 µM; IC50 [33]: 3.84 µM; IC50 [34]: > 4 µM; IC50 [35]: > 4 µM; IC50 [36]: > 4 µM; IC50 [37]: 3.74 µM; IC50 [38]: > 4 µM; IC50 [39]: > 4 µM
